In test [1] the test system is GH-secreting adenoma cells. Conditions: for suppression of GH: 10 nM; for mean maximal GH suppression: at nanomolar concentrations; for EC50: read-out: EC50 of inhibition of GH release. How it is done:
(§1) GH and PRL were measured using commercial immunoradiometric kits (Immunotech, Marseilles, France). Normal GH values ranged from 0.2–2.4 μg/L; normal PRL values ranged from 1–24 μg/L in women and from 1–17 μg/L in men. After an ethanol-acid extraction, the plasma IGF-I assay was performed using the IGF-I RIA kit from Nichols Institute Diagnostics (San Juan Capistrano, Calif.).
(§2) A portion of each tumor obtained at surgery was dissociated by mechanical and enzymatic methods. […] Tumor cells were initially cultured in DMEM supplemented with 10% FCS for 3 days. On day 3, the cells were washed and plated in multiwell culture dishes (Costar 3524, Brumath, France) coated with extracellular matrix from bovine endothelial corneal cells as previously described (Jaquet P, et al., 1985, Horm Res. 22:153–163.) at a density of 2×10^4 cells/well. When they were attached to the matrix on days 5–8, depending on the culture, the medium was removed and replaced with DMEM supplemented with 2% FCS, antibiotics, transferrin, and selenium as previously described (Jaquet P, et al., 1985, Horm Res. 22:153–163.). […] Each drug concentration was tested in quadruplicate.
(§3) SRIF-14 was purchased from Sigma (Saint-Quentin Fallavier, France). […] The native SRIF and SRIF analogs were dissolved in 0.01 mol/L acetic acid containing 0.1% purified serum albumin (Life Technologies, Inc., Cergy-Pontoise, France). The drugs were stored at −80 C. as 10^−3 mol/L solutions. For each experiment, fresh working solutions were prepared from a new aliquot.
(§4) The results are presented as the mean±SEM. Statistical significance between two unpaired groups was determined by the Mann-Whitney test. To measure the strength of association between the pairs of variables without specifying dependencies, Spearman order correlation's were used. P<0.05 was considered significant for all tests.

Test [2] deals with mixed GH-/PRL-secreting tumor cells. Put plainly: Inhibition of PRL release in mixed GH-/PRL-secreting tumor cell cultures. The format is cell-based, human. Conditions: five tumor cell cultures (A1, A2, A7, A9, A10); for mean maximal PRL suppression: at 10 nmol/L. The protocol:
as §1, §2, §3, §4

The test system of the next test is GH. Put plainly: Acute octreotide test in acromegalic patients (GH decrease). Conditions: for mean GH suppression: single 200 μg injection, GH 2–6 h after injection vs basal; for Percent inhibition vs. GH basal value: 2–6 h after 200 μg sc; for GH under octreotide: mean GH 2–6 h after 200 μg sc. The format is in vivo, human. The protocol:
Ten acromegalic patients (seven women and three men), aged 26–62 years, presenting with macroadenoma were studied. Their endocrine status and the neuroradiological characterization of the pituitary adenomas were documented before treatment. Basal GH levels were the mean of three random samples obtained between 0800–0900 h. The basal IGF-I value was evaluated under fasting conditions between 0800–0900 h. […] All patients underwent transsphenoidal surgery.
as §1

Setting [3] is: octreotide partially responsive tumors (A6–A10).
Setting [4] is: octreotide-sensitive tumors (A1–A5).

Read-outs that look alike come from different tables or passages of the source. Bridge positions count the residues as written; N and C are the ends. Square brackets hold non-standard residues; d marks the D form. Peptide text beside a SMILES is read from it.

On to `C[C@H](N)C(=O)NCC(=O)N[C@H]1CSSC[C@@H](C(=O)O)NC(=O)[C@H](CO)NC(=O)[C@H]([C@@H](C)O)NC(=O)[C@H](Cc2ccccc2)NC(=O)[C@H]([C@@H](C)O)NC(=O)[C@H](CCCCN)NC(=O)[C@H](Cc2c[nH]c3ccccc23)NC(=O)[C@H](Cc2ccccc2)NC(=O)[C@H](Cc2ccccc2)NC(=O)[C@H](CC(N)=O)NC(=O)[C@H](CCCCN)NC1=O` [Somatostatin-14], for which, in test [1] (setting [3]), the “maximal GH suppression compared with Compound B” value is “equally achieved”. Also, the “dose-related inhibition of PRL release compared with Compound B” value in test [2] was “similarly achieved”.

Regarding `CC(C)[C@@H]1NC(=O)[C@H](CCCCN)NC(=O)[C@@H](Cc2c[nH]c3ccccc23)NC(=O)[C@H](Cc2ccc(O)c(I)c2)NC(=O)[C@@H](NC(=O)[C@H](N)Cc2ccccc2)CSSC[C@@H](C(=O)N[C@H](C(N)=O)[C@@H](C)O)NC1=O` [Formula (I), D-Phe-c(Cys-Tyr(I)-D-Trp-Lys-Val-Cys)-Thr-NH2], in test [1] (setting [3]), the “maximal GH suppression” value is on record as 44±5% and the “suppression of GH” value was found to be 44±5%. In addition, the “mean maximal GH suppression” value in test [1] (setting [4]) is reported as 44±5%. The “mean maximal PRL suppression” value in test [2] is 51±5%.

With `C[C@@H](O)[C@@H]1NC(=O)[C@H](CCCCN)NC(=O)[C@@H](Cc2c[nH]c3ccccc23)NC(=O)[C@H](Cc2ccccc2)NC(=O)[C@H](Cc2ccccc2)NC(=O)[C@@H](N)CSSC[C@@H](C(N)=O)NC(=O)[C@H](Cc2ccccc2)NC1=O` [Compound B] (H-CFF[dW]KTFC-NH2; disulfide 1-8), the “maximal GH suppression” value in test [1] (setting [3]) is listed as 38±7%. In addition, in test [1] (setting [4]), the “concentration producing maximal inhibition of GH release” value is recorded as 10 nmol/L. Besides, the “mean maximal PRL inhibition” value in test [2] stood at 52±6%.

Take `CC[C@@H]1NC(=O)[C@H](CCCCN)NC(=O)[C@@H](Cc2c[nH]c3ccccc23)NC(=O)[C@H](Cc2ccc(O)cc2)NC(=O)[C@@H](NC(=O)[C@@H](Cc2ccccc2)NS(=O)(=O)CCN2CCN(CCO)CC2)CSSC[C@@H](C(=O)N[C@H](C(N)=O)[C@@H](C)O)NC1=O` [Compound A]: the “maximal GH suppression” value in test [1] (setting [3]) was 31±5%. Besides, the “maximal mean GH suppression” value in test [1] (octreotide-sensitive tumors (A1–A5), at 0.1 nmol/L) worked out at 41±7%. Further, the “mean maximal PRL inhibition” value in test [2] is listed as 34±5%.

As a reminder, the EC50 is the midpoint of the concentration-response curve. As for Octreotide, in test [1] (setting [3]), the “suppression of GH” value came to 26±7%. Moreover, the “mean maximal GH suppression” value in test [1] (setting [4]) is 36±7%. In addition, the half-maximal effective concentration (EC50) in test [1] (cultures from the 5 octreotide partially responsive tumors (A6–A10)) was determined as 0.2 ± 0.145 nM; in test [1] (cultures from the 5 octreotide-sensitive tumors (A1–A5), 8-h period), 0.055 ± 0.015 nM. Also, in test [2], the “mean maximal PRL suppression” value is on record as 34±7%. The “mean GH suppression” value with GH (five full octreotide responders) is 79±7%; with GH (five partial octreotide responders) it was 33±6%. Also, the “Percent inhibition vs. GH basal value” with GH (patient A1) came out at 91%; with GH (patient A2), 82%; with GH (patient A3) it was 76%; in the test on GH (patient A4) it was 75%; with GH (patient A5), 75%; with GH (patient A6), 40%. For the same molecule, the “Percent inhibition vs. GH basal value” in the test with GH (patient A7) was 39%; with GH (patient A8), 37%; in the test on GH (patient A9), 29%; in the test with GH (patient A10), 23%. For the same molecule, the GH under octreotide in the test on GH (patient A1, basal 11) stood at 1 µg/L; in the test on GH (patient A2, basal 22), 4 µg/L; with GH (patient A3, basal 109), 26 µg/L; in the test on GH (patient A4, basal 141) it was 36 µg/L; in the test on GH (patient A5, basal 47) it was 12 µg/L; with GH (patient A6, basal 5), 3 µg/L. Further, the GH under octreotide amounted to 15.8 µg/L in the test with GH (patient A7, basal 26); 8.2 µg/L in the test on GH (patient A8, basal 13); 100 µg/L in the test with GH (patient A9, basal 141); 151 µg/L in the test on GH (patient A10, basal 195).

Values taken from patent US7094753B2, “Somatostatin analog and uses thereof” (Societe de Conseils de Recherches et d'Applications …, priority 2001, dated 2006).
